In patent publication US5041426A, “Immune system enhancing 3-β-d-ribofuranosylthiazolo[4,5-d]pyridimine nucleosides and nucleotides” (priority 1988, dated 1991):
“And” between values parts separate entries of the source, which are not always exact repeats. Equal values may be shown once. Read-outs that look alike come from different tables or passages of the source.

What was measured:
YAC-1 cells [1] = test: In vitro potentiation of murine natural killer cell activity (mouse spleen cells, 51Cr release); assay type: cell-based
Description: After incubation the cytotoxicity of the treated and untreated cells was determined against YAC-1 cells.
^a Spleen cells from mice were treated with 0.05 mM concentration of
amino acids and 5 × 10^-5 M Mercaptoethanol. The effector cells
were then tested for their cytotoxic activity against YAC1 target cells i
4 hr ^51 Cr release assay.
^a Spleen cells from mice were incubated in the absence and presence
of various compounds. After incubation, cells were suspended in complete
medium and then their cytotoxic activity was determined against YAC1
target cells as described in the text

K562 tumor cells = test: In vitro augmentation of human natural killer cell activity (PBMNC, 51Cr release); assay type: cell-based; conditions: Table 22
Description: The natural killer cell activity in human cells was also measured. In conducting these tests peripheral blood mononuculear cells (PBMNC) were isolated on Ficoll-Hypaque gradient, washed three times in Hanks and re-suspended in RPMI-1640 containing 10% human AB serum as described in Rosenberg, S. A.: Journal American Medical Association, 256:3117, 1986 and the above referred to reference to Djeu, et al. Peripheral blood mononuclear cells (PBMNC) from eleven different donors were treated with compound 7 as described in Djeu, et al. as well as Sharma, B., Odom, L. F.: Cancer Immunol. Immunother. 7.93, 1979, and Sharma, B., Odom, L. F.: Cancer Research 44:3258, 1984.
The PBMNC cells were incubated with compound 7 at 37° C. for 20 to 68 hours in a 5% CO2 humid atmosphere and after incubation the cytotoxicity was determined against K562 tumor cells.
^a Peripheral blood mononuclear cells were treated with 0.05 - 0.4 mM
concentration of compound 7 in RPM11640 containing 10% human AB serum for
20 to 68 hours. After the treatment, effector cells were tested against
K562 target cells in 4 hour ^51 Cr release assay as described in
Sharma et al. above. The data shown here represent the maximum response.
K562 target cells in 4 hour ^51 Cr release assay as previously
described above in Sharma et al. The data represent the maximum response.
Other Nucleosides and Nucleotides of the invention were tested for their activity in human natural killer cells […] as per example 33 above.

YAC-1 cells [2] = test: In vitro potentiation of murine natural killer cell activity (mouse spleen cells, 51Cr release); assay type: cell-based; conditions: Table 21; 0.5 mM
Influenza B Virus = test: Antiviral activity against Influenza B virus infection in mice; assay type: in vivo, mouse
Description: Compound 7 was tested therapeutically against Influenza B Virus Infection in Mice. In addition to a saline control Ribavirin, a known antiviral, was utilized for test purposes.
hours previrus inoculation.
^c p < .001 twotailed ttest.

San Angelo Virus [3] = assay type: in vivo, mouse; conditions: 200 mg/kg/day; half-daily doses twice a day for 7 days; Time (21 days)
San Angelo Virus [4] = assay type: in vivo, mouse; conditions: saline at -24 h, of mice that died
Banzi Virus = assay type: in vivo, mouse; conditions: placebo at -24 h, of mice that died

Question: Which “% Natural Killer Cell Cytotoxicity” value (YAC-1 cells [1]; Table 21, 0.05 mM) does the source give for O=C(OC[C@H]1O[C@@H](n2c(=O)sc3c(=O)[nH]cnc32)[C@H](OC(=O)c2ccccc2)[C@@H]1OC(=O)c1ccccc1)c1ccccc1 [Compound 9, 3-(2,3,5-Tri-O-benzoyl-β-D-Ribofuranosyl)thiazolo[4,5-d] pyrimidine-2,7(6H)-dione] here?
Answer: 3% and 2% and 0.31%

Question: What about the “% Natural Killer Cell Cytotoxicity” value (K562 tumor cells; 0.05 mM) of the same molecule?
Answer: 6%

Question: What about the “% Natural Killer Cell Cytotoxicity” value (K562 tumor cells; 0.2 mM) of the same molecule?
Answer: 43%

Question: And the “% Natural Killer Cell Cytotoxicity” value (YAC-1 cells [2])?
Answer: 13% and 6.5%

Question: For Nc1nc2c(sc(=S)n2[C@@H]2O[C@H](CO)[C@@H](O)[C@H]2O)c(=O)[nH]1 [Compound 16, 5-Amino-2-thioxo-3-β -D-ribofuranosylthiazolo[4,5-d]pyrimidin-7(6H)-one], which “% Natural Killer Cell Cytotoxicity” value (YAC-1 cells [2]) is on record?
Answer: 38%

Question: With Nc1nc2c(sc(=O)n2[C@@H]2O[C@H](CO)[C@@H](O)[C@H]2O)c(=S)[nH]1 [Compound 19, 5-Amino-7(6H)-thioxo-3-β-D-ribofuranoxylthiazolo[4,5-d]pyrimidin-2-one] as the molecule, how does the “% Natural Killer Cell Cytotoxicity” value (K562 tumor cells; 0.2 mM) read?
Answer: 7%

Question: O=c1[nH]c(=O)c2sc(=O)n([C@@H]3O[C@H](CO)[C@@H](O)[C@H]3O)c2[nH]1 [Compound 8, 3-β-D-Ribofuranosylthiazolo[4,5-d]pyrimidine-2,5,7(4H,6H)-trione] was tested. Which “% Natural Killer Cell Cytotoxicity” value (K562 tumor cells; 0.2 mM) did it give?
Answer: 5%

Question: For Nc1nc2c(sc(=O)n2[C@@H]2O[C@@H]3COP(=O)(O)O[C@H]3[C@H]2O)c(=O)[nH]1 [Compound 12], which “% Natural Killer Cell Cytotoxicity” value (K562 tumor cells; 0.2 mM) is on record?
Answer: 43%

Question: And the “% Natural Killer Cell Cytotoxicity” value (K562 tumor cells; 0.4 mM, Monophosphate Ammonium Salt)?
Answer: 39% and 22%

Question: How did the “% Natural Killer Cell Cytotoxicity” value (YAC-1 cells [1]; C57BL/6J spleen cells, treatment 0 h, compound 7 at 0.05 mM) turn out when Poly I:C [reference compound] was run?
Answer: 18%

Question: What about the “% Natural Killer Cell Cytotoxicity” value (YAC-1 cells [1]; C57BL/6J spleen cells, treatment 0 h, compound 7 at 0.05 mM, listed as Poly I:) of the same molecule?
Answer: 22%

Question: What about the “% Natural Killer Cell Cytotoxicity” value (YAC-1 cells [1]; C57BL/6J spleen cells, treatment 20 h, compound 7 at 0.05 mM) of the same molecule?
Answer: 13%

Question: And the “% Natural Killer Cell Cytotoxicity” value (YAC-1 cells [1]; C57BL/6J spleen cells, treatment 20 h, compound 7 at 0.05 mM, listed as Poly I:)?
Answer: 6%

Question: And the “% Natural Killer Cell Cytotoxicity” value (YAC-1 cells [1]; C57BL/6J spleen cells, treatment 44 h, compound 7 at 0.05 mM)?
Answer: 14%

Question: What about the “% Natural Killer Cell Cytotoxicity” value (YAC-1 cells [1]; C57BL/6J spleen cells, treatment 44 h, compound 7 at 0.05 mM, listed as Poly I:) of the same molecule?
Answer: 13%

Question: And the “% Natural Killer Cell Cytotoxicity” value (YAC-1 cells [1]; CBA/CaJ spleen cells, treatment 0 h, compound 7 at 0.05 mM)?
Answer: 14.5% and 22%

Question: And the “% Natural Killer Cell Cytotoxicity” value (YAC-1 cells [1]; CBA/CaJ spleen cells, treatment 20 h, compound 7 at 0.05 mM)?
Answer: 18% and 31%

Question: And the “% Natural Killer Cell Cytotoxicity” value (YAC-1 cells [1]; CBA/CaJ spleen cells, treatment 44 h, compound 7 at 0.05 mM)?
Answer: 19% and 9%

Question: What does the source list for NC(=O)c1ncn([C@@H]2O[C@H](CO)[C@@H](O)[C@H]2O)n1 [Ribavirin]?
Answer: Mean Survival Time (Influenza B Virus; 100 mg/kg/day, half-daily doses twice a day for 7 days): 8.0 ± 0.0 days; efficacy against influenza B (in words) (Influenza B Virus; Table 12): significant antiviral activity; Mean Survival Time (San Angelo Virus [3]): 12.3 ± 2.9 days; Mean Survival Time (San Angelo Virus [4]; Ribavirin 25 mg/kg/day days 0-6): 8.1 ± 0.7 days; Mean Survival Time (San Angelo Virus [4]; Ribavirin 50 mg/kg/day days 0-6): 9.0 ± 1.2 days; Mean Survival Time (Banzi Virus; Ribavirin 100 mg/kg days 0-6): 8.5 ± 1.0 days; Mean Survival Time (Banzi Virus; Ribavirin 200 mg/kg days 0-6): 9.1 ± 0.8 days
